From patent US7956053B2, “Inhibitors of tyrosine kinases” (Novartis AG, priority 2002, dated 2011)

Legend:
[1] = target: KDR (Homo sapiens, UniProt P35968); experiment: Enzymatic KDR in vitro inhibition; assay type: biochemical
Protocol: Test for activity against VEGF-receptor tyrosine kinase. The test is conducted using Flt-1 VEGF-receptor tyrosine kinase. The detailed procedure is as follows: 30 μL kinase solution (10 ng of the kinase domain of Flt-1, Shibuya et al., Oncogene 5, 519-24 [1990]) in 20 mM Tris.HCl pH 7.5, 3 mM manganese dichloride (MnCl2), 3 mM magnesium chloride (MgCl2), 10 μM sodium vanadate, 0.25 mg/mL polyethylenglycol (PEG) 20000, 1 mM dithiothreitol and 3 μg/μL poly(Glu,Tyr) 4:1 (Sigma, Buchs, Switzerland), 8 μM [^33P]-ATP (0.2 μCi), 1% DMSO, and 0 to 100 μM of the compound to be tested are incubated together for 10 minutes at room temperature. The reaction is then terminated by the addition of 10 μL 0.25 M ethylenediaminetetraacetate (EDTA) pH 7. Using a multichannel dispenser (LAB SYSTEMS, USA), an aliquot of 20 μL is applied to a PVDF (=polyvinyl difluoride) Immobilon P membrane (Millipore, Bedford, USA), through a Gibco-BRL microtiter filter manifold and connected to a vacuum. Following complete elimination of the liquid, the membrane is washed 4 times successively in a bath containing 0.5% phosphoric acid (H3PO4) and once with ethanol, incubated for 10 minutes each time while shaking, then mounted in a Hewlett Packard TopCount Manifold and the radioactivity measured after the addition of 10 μL Microscint® (β-scintillation counter liquid). IC50-values are determined by linear regression analysis of the percentages for the inhibition of each compound in at least four concentrations (as a rule 0.01, 0.1, 1.0 and 10 μmol).
(§1) Enzymatic (c-Abl, KDR, Flt3) in vitro inhibition data are presented as % inhibition at 10 μM. The measurements are made as described above in the general description.

[2] = target: T1, c-Abl (Homo sapiens, UniProt P00519); experiment: Test for activity against c-Abl protein tyrosine kinase (filter binding assay); assay type: biochemical
T1 construct: The His-tagged kinase domain of c-Abl is cloned and expressed in the baculovirus/Sf9 system; His; made in house; host or cells: baculovirus/Sf9
T1 sequence (P00519 242-493 limits assumed): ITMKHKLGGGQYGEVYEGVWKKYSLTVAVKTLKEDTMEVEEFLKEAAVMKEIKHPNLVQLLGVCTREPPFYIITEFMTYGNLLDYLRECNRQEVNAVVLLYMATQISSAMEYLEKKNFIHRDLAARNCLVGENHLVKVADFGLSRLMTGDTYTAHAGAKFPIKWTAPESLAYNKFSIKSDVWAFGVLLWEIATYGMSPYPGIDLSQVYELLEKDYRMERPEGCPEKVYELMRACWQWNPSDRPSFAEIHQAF
Protocol: Test for activity against c-Abl protein tyrosine kinase. The test is conducted as a filter binding assay as follows: The His-tagged kinase domain of c-Abl is cloned and expressed in the baculovirus/Sf9 system as described by Bhat et al., J Biol. Chem. 272, 16170-5 (1997). A protein of 37 kD (c-Abl kinase) is purified by a two-step procedure over a Cobalt metal chelate column followed by an anion exchange column with a yield of 1-2 mg/L of Sf9 cells. The purity of the c-Abl kinase is >90% as judged by SDS-PAGE after Coomassie blue staining. The assay contains: c-Abl kinase (50 ng), 20 mM Tris.HCl, pH 7.5, 10 mM MgCl2, 10 μM Na3VO4, 1 mM DTT and 0.06 μCi/assay [γ^33 P]-ATP (5 μM ATP) using 30 μg/mL poly-Ala,Glu,Lys,Tyr-6:2:5:1 (Poly-AEKY, Sigma P1152) in the presence of 1% DMSO, total volume of 30 μL. Reactions are terminated by adding 10 μL of 250 mM EDTA, and 30 μL of the reaction mixture is transferred onto Immobilon-PVDF membrane (Millipore, Bedford, Mass., USA) previously soaked for 5 min with methanol, rinsed with water, then soaked for 5 min with 0.5% H3PO4 and mounted on vacuum manifold with disconnected vacuum source. After spotting all samples, vacuum is connected and each well rinsed with 200 μL 0.5% H3PO4. Membranes are removed and washed on a shaker with 0.5% H3PO4 (4 times) and once with ethanol. Membranes are counted after drying at ambient temperature, mounting in Packard TopCount 96-well frame, and addition of 10 μL/well of Microscint™ (Packard).
as §1

Sequence of KDR (P35968 20-1356): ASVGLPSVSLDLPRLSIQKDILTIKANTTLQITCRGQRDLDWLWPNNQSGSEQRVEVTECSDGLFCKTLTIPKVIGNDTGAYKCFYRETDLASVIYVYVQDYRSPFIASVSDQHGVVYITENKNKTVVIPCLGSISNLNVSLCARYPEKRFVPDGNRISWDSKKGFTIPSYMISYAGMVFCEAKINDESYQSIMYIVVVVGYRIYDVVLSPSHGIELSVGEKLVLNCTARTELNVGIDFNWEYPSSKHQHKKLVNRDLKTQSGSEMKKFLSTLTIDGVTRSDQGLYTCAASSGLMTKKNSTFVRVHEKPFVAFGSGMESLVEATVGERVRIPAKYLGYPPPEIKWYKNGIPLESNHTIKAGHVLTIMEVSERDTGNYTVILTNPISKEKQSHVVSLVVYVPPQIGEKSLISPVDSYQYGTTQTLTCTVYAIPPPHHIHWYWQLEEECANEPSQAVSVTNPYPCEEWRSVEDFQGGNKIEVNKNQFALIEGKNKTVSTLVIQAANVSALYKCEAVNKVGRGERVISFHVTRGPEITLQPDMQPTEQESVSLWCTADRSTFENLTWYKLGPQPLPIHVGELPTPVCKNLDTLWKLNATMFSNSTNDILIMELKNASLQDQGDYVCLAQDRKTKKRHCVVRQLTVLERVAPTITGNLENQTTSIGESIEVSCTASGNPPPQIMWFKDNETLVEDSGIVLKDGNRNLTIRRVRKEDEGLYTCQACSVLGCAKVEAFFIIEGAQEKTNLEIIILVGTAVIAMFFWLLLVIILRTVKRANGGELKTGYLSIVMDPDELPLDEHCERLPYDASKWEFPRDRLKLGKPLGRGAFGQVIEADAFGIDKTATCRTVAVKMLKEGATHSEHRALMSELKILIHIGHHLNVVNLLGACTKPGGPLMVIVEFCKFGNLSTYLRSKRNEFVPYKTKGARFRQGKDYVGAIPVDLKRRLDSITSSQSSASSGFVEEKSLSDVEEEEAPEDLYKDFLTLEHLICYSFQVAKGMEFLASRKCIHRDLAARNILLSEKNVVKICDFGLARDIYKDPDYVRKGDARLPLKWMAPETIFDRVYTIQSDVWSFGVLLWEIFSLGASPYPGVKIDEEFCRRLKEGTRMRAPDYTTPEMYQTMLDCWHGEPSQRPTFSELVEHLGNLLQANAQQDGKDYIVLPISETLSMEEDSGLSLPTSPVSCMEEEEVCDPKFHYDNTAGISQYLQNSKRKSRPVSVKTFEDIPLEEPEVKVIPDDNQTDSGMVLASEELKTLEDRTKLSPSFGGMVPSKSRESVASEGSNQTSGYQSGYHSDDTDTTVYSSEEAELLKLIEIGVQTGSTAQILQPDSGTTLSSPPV

inhibition at 10 µM [1] [%]	inhibition at 10 µM [2] [%]	SMILES
37	72	Cc1ccc(C(=O)NCC(c2ccccc2)c2ccccc2)cc1Nc1nccc(-c2cccnc2)n1 [Example 49, N-(2,2-Diphenylethyl)-4-methyl-3-[[4-(3-pyridinyl)-2-pyrimidinyl]amino]-benzamide]
83	87	Cc1ccc(C(=O)NC2CCc3ccccc32)cc1Nc1nccc(-c2cccnc2)n1 (stereo not drawn) [Example 50, N-(2,3-Dihydro-1H-inden-1-yl)-4-methyl-3-[[4-(3-pyridinyl)-2-pyrimidinyl]amino]benzamide]
52	92	Cc1ccc(C(=O)NC(c2ccccc2)c2ccccc2)cc1Nc1nccc(-c2cccnc2)n1 [Example 51, N-(Diphenylmethyl)-4-methyl-3-[[4-(3-pyridinyl)-2-pyrimidinyl]amino]benzamide]
37	78	Cc1ccc(C(=O)NCCN2CCCCC2)cc1Nc1nccc(-c2cccnc2)n1 [Example 52, 4-Methyl-N-[2-(1-piperidinyl)ethyl]-3-[[4-(3-pyridinyl)-2-pyrimidinyl]amino]benzamide]
79	88	Cc1ccc(C(=O)Nc2cccc3c2CCCC3)cc1Nc1nccc(-c2cccnc2)n1 [Example 53, 4-Methyl-3-[[4-(3-pyridinyl)-2-pyrimidinyl]amino]-N-(5,6,7,8-tetrahydro-1-naphthalenyl)benzamide]
74	69	Cc1ccc(C(=O)NCc2ccc(C(F)(F)F)cc2)cc1Nc1nccc(-c2cccnc2)n1 [Example 54, 4-Methyl-3-[[4-(3-pyridinyl)-2-pyrimidinyl]amino]-N-[[4-(trifluoromethyl)phenyl]methyl]benzamide]
44	40	CCOCCNC(=O)c1ccc(C)c(Nc2nccc(-c3cccnc3)n2)c1 [Example 56, N-(2-Ethoxyethyl)-4-methyl-3-[[4-(3-pyridinyl)-2-pyrimidinyl]amino]benzamide]
42	8	Cc1ccc(C(=O)NCCN2CCNC2=O)cc1Nc1nccc(-c2cccnc2)n1 [Example 57, 4-Methyl-N-[2-(2-oxo-1-imidazolidinyl)ethyl]-3-[[4-(3-pyridinyl)-2-pyrimidinyl]amino]benzamide]
26	40	Cc1ccc(NC(=O)c2ccc(C)c(Nc3nccc(-c4cccnc4)n3)c2)nc1 [Example 58, 4-Methyl-N-(5-methyl-2-pyridinyl)-3-[[4-(3-pyridinyl)-2-pyrimidinyl]amino]benzamide]
83	75	Cc1ccc(C(=O)N2CCC(O)(c3ccccc3)CC2)cc1Nc1nccc(-c2cccnc2)n1 [Example 59, 1-[4-Methyl-3-[[4-(3-pyridinyl)-2-pyrimidinyl]amino]benzoyl]-4-phenyl-4-piperidinol]
36	79	Cc1ccc(C(=O)Nc2cccc(C(=O)c3ccccc3)c2)cc1Nc1nccc(-c2cccnc2)n1 [Example 60, N-(3-Benzoylphenyl)-4-methyl-3-[[4-(3-pyridinyl)-2-pyrimidinyl]amino]benzamide]
65	95	Cc1ccc(C(=O)NCC(=O)OC(C)(C)C)cc1Nc1nccc(-c2cccnc2)n1 [Example 61, N-[4-Methyl-3-[[4-(3-pyridinyl)-2-pyrimidinyl]amino]benzoyl]-glycine 1,1-dimethylethyl ester]
44	59	CCOC(=O)Cc1ccc(NC(=O)c2ccc(C)c(Nc3nccc(-c4cccnc4)n3)c2)cc1 [Example 62, 4-[[4-Methyl-3-[[4-(3-pyridinyl)-2-pyrimidinyl]amino]benzoyl]amino]benzene-acetic acid ethyl ester]
82	74	Cc1ccc(C(=O)NCCCN(C)c2ccccc2)cc1Nc1nccc(-c2cccnc2)n1 [Example 63, 4-Methyl-N-[3-(methylphenylamino)propyl]-3-[[4-(3-pyridinyl)-2-pyrimidinyl]-amino]benzamide]
59	56	CCOC(=O)C1CCN(Cc2cccc(NC(=O)c3ccc(C)c(Nc4nccc(-c5cccnc5)n4)c3)c2)CC1 [Example 64, 1-[[3-[[4-Methyl-3-[[4-(3-pyridinyl)-2-pyrimidinyl]amino]benzoyl]amino]phenyl]-methyl]-4-piperidinecarboxylic acid ethyl ester]
60	96	CCOC(=O)C(NC(=O)c1ccc(C)c(Nc2nccc(-c3cccnc3)n2)c1)C(=O)OCC [Example 65, [[4-Methyl-3-[[4-(3-pyridinyl)-2-pyrimidinyl]amino]benzoyl]amino]propanedioic acid diethyl ester]
23	67	Cc1ccc(C(=O)NCCN(C(C)C)C(C)C)cc1Nc1nccc(-c2cccnc2)n1 [Example 66, N-[2-[bis(1-Methylethyl)amino]ethyl]-4-methyl-3-[[4-(3-pyridinyl)-2-pyrimidinyl]-amino]benzamide]
96	99	Cc1ccc(C(=O)NCc2cc(C(C)(C)O)cc(C(F)(F)F)c2)cc1Nc1nccc(-c2cccnc2)n1 [Example 68, 4-Methyl-3-[[4-(3-pyridinyl)-2-pyrimidinyl]amino]-N-[[3-[(1-hydroxy-1-methyl-ethyl)]-5-(1,1,1-trifluoromethyl)phenyl]methyl]benzamide]
